The values below come from ChEMBL document CHEMBL3286223, “Anticancer phytochemical analogs 37: synthesis, characterization, molecular docking and cytotoxicity of novel plumbagin hydrazones against breast cancer cells” (Bioorg Med Chem Lett, 2014).

The test system of data set [1] is MCF7. The data set can be described thus: Cytotoxicity against human MCF7 cells expressing estrogen and progesterone receptor after 72 hrs by MTT assay. Format: functional, cell-based. On the technique in general: Tetrazolium assays rely on reduction of a dye to a coloured formazan, in cell work by metabolically active cells.
Data set [2] can be described thus: Cytotoxicity against human MCF10A cells after 72 hrs by MTT assay. It is filed as cell-based. The settings on record: mcf-10a.
Data set [3] addresses Transcription factor p65 (Homo sapiens) (UniProt Q04206). The data set can be described thus: Reduction of NFkappaB p65 expression in estrogen receptor-deficient human MDA-MB-231 cells at 5 uM after 72 hrs by Western blot analysis. Format: cell-based.
Data set [4] relates to MDA-MB-231. The data set can be described thus: Cytotoxicity against estrogen receptor-deficient human MDA-MB-231 cells after 72 hrs by MTT assay. Format: functional, cell-based. The settings on record: MDA-MB-231, 72 h.

Calls of active or inactive are those of the source. The calls are words filed in the database; no cut-off is given here.

By IC50 is commonly meant the concentration needed to halve the response being measured.

Chain of Transcription factor p65 (Homo sapiens) (Q04206 whole entry): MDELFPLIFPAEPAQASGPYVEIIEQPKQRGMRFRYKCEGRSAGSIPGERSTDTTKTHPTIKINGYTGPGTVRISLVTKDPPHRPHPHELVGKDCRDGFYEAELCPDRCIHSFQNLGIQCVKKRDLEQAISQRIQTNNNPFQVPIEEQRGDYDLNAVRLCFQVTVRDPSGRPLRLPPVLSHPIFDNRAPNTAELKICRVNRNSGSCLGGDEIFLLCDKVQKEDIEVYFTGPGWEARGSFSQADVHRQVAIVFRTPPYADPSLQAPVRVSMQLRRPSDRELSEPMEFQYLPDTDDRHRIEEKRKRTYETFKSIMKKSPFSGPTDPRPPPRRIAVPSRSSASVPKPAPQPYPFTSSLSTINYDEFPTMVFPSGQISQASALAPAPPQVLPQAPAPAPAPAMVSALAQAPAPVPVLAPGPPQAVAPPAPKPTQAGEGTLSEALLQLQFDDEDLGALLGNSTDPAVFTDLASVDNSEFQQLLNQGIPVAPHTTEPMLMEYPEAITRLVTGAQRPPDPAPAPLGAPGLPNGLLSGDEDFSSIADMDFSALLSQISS

For the compound `CC(=O)N/N=C1\C=C(C)C(=O)c2cccc(O)c21`, the result in data set [1] was Active. For the same compound, the Activity entry in data set [2] is “Non-toxic”.

Regarding `CC1=C/C(=N\NC(=O)Cc2c[nH]c3ccccc23)c2c(O)cccc2C1=O`, the outcome in data set [3] and in data set [1] was Active. The Activity entry in data set [2] is on record as “Non-toxic”. In data set [4], this compound had an IC50 of 1500 nM.

As to `CC1=C/C(=N\NC(=O)c2cc3ccccc3cc2O)c2c(O)cccc2C1=O`, the outcome in data set [3] and in data set [1] was Active. Further, in data set [2], the Activity result is recorded as “Non-toxic”. This compound also registered an IC50 in data set [4] of 3200 nM.

For `CC1=C/C(=N\NC(N)=S)c2c(O)cccc2C1=O`, the outcome in data set [1] was Active. Also, the Activity entry in data set [2] was “Non-toxic”.

With `CC1=CC(=O)c2c(O)cccc2C1=O`, in data set [1], the outcome was Active.
